Measured values from ChEMBL document CHEMBL3045792, “Synthesis, antimicrobial activity, and molecular modeling of novel 4-(3-(4-benzylpiperazin-1-yl)propoxy)-7-methoxy-3-substituted phenyl-2H-chromen-2-one” (2013).
Calls of active or inactive are those of the source. The rule behind the calls is not given here.

Experiments:
Type in all cases: functional
Proteus mirabilis [1] = experiment: Antibacterial activity against Proteus mirabilis assessed as growth inhibition at 900 ug/ml by NCCLS […] method; details: read-out: IZ
Candida albicans [2] = experiment: Antifungal activity against Candida albicans assessed as growth inhibition at 600 ug/ml; details: read-out: IZ
Proteus vulgaris [3] = experiment: Antibacterial activity against Proteus vulgaris assessed as growth inhibition at 900 ug/ml by NCCLS […] method; details: read-out: IZ
Candida albicans [4] = experiment: Antifungal activity against Candida albicans assessed as growth inhibition at 900 ug/ml; details: read-out: IZ
Escherichia coli [5] = experiment: Antibacterial activity against Escherichia coli assessed as growth inhibition at 600 ug/ml by NCCLS […] method; details: read-out: IZ
Klebsiella aerogenes [6] = experiment: Antibacterial activity against Enterobacter aerogenes assessed as growth inhibition at 900 ug/ml by NCCLS […] method; details: for zone of inhibition at 900 µg/mL: read-out: IZ
Colletotrichum falcatum [7] = experiment: Antifungal activity against Glomerella tucumanensis assessed as growth inhibition at 1200 ug/ml; details: read-out: IZ
Proteus vulgaris [8] = experiment: Antibacterial activity against Proteus vulgaris assessed as growth inhibition at 600 ug/ml by NCCLS […] method; details: read-out: IZ
Staphylococcus aureus [9] = experiment: Antibacterial activity against Staphylococcus aureus assessed as growth inhibition at 600 ug/ml by NCCLS […] method; details: read-out: IZ
Escherichia coli [10] = experiment: Antibacterial activity against Escherichia coli assessed as growth inhibition at 900 ug/ml by NCCLS […] method; details: read-out: IZ
Staphylococcus aureus [11] = experiment: Antibacterial activity against Staphylococcus aureus assessed as growth inhibition at 900 ug/ml by NCCLS […] method; details: read-out: IZ
Bacillus subtilis [12] = experiment: Antibacterial activity against Bacillus subtilis assessed as growth inhibition at 900 ug/ml by NCCLS […] method; details: read-out: IZ
Candida albicans [13] = experiment: Antifungal activity against Candida albicans assessed as growth inhibition at 1200 ug/ml; details: read-out: IZ
Proteus mirabilis [14] = experiment: Antibacterial activity against Proteus mirabilis assessed as growth inhibition at 600 ug/ml by NCCLS […] method; details: read-out: IZ
Streptococcus pyogenes [15] = experiment: Antibacterial activity against Streptococcus pyogenes assessed as growth inhibition at 900 ug/ml by NCCLS […] method; details: read-out: IZ
Bacillus pumilus [16] = experiment: Antibacterial activity against Bacillus pumilus assessed as growth inhibition at 900 ug/ml by NCCLS […] method; details: for zone of inhibition at 900 µg/mL: read-out: IZ
Exserohilum rostratum [17] = experiment: Antifungal activity against Setosphaeria rostrata assessed as growth inhibition at 600 ug/ml; details: read-out: IZ
Fusarium oxysporum [18] = experiment: Antifungal activity against Fusarium oxysporum assessed as growth inhibition at 900 ug/ml; details: read-out: IZ
Priestia megaterium [19] = experiment: Antibacterial activity against Bacillus megaterium assessed as growth inhibition at 600 ug/ml by NCCLS […] method; details: read-out: IZ
Fusarium oxysporum [20] = experiment: Antifungal activity against Fusarium oxysporum assessed as growth inhibition at 600 ug/ml; details: read-out: IZ
Klebsiella pneumoniae [21] = experiment: Antibacterial activity against Klebsiella pneumoniae assessed as growth inhibition at 900 ug/ml by NCCLS […] method; details: read-out: IZ
Colletotrichum falcatum [22] = experiment: Antifungal activity against Glomerella tucumanensis assessed as growth inhibition at 300 ug/ml; details: read-out: IZ
Colletotrichum falcatum [23] = experiment: Antifungal activity against Glomerella tucumanensis assessed as growth inhibition at 900 ug/ml; details: read-out: IZ
Exserohilum rostratum [24] = experiment: Antifungal activity against Setosphaeria rostrata assessed as growth inhibition at 900 ug/ml; details: read-out: IZ
Fusarium oxysporum [25] = experiment: Antifungal activity against Fusarium oxysporum assessed as growth inhibition at 300 ug/ml; details: read-out: IZ
Exserohilum rostratum [26] = experiment: Antifungal activity against Setosphaeria rostrata assessed as growth inhibition at 300 ug/ml; details: read-out: IZ
Candida albicans [27] = experiment: Antifungal activity against Candida albicans assessed as growth inhibition at 300 ug/ml; details: read-out: IZ
Colletotrichum falcatum [28] = experiment: Antifungal activity against Glomerella tucumanensis assessed as growth inhibition at 600 ug/ml; details: read-out: IZ
Bacillus subtilis [29] = experiment: Antibacterial activity against Bacillus subtilis assessed as growth inhibition at 600 ug/ml by NCCLS […] method; details: read-out: IZ
Klebsiella pneumoniae [30] = experiment: Antibacterial activity against Klebsiella pneumoniae assessed as growth inhibition at 600 ug/ml by NCCLS […] method; details: read-out: IZ
Streptococcus pyogenes [31] = experiment: Antibacterial activity against Streptococcus pyogenes assessed as growth inhibition at 600 ug/ml by NCCLS […] method; details: read-out: IZ
Exserohilum rostratum [32] = experiment: Antifungal activity against Setosphaeria rostrata assessed as growth inhibition at 1200 ug/ml; details: read-out: IZ
Klebsiella aerogenes [33] = experiment: Antibacterial activity against Enterobacter aerogenes assessed as growth inhibition at 600 ug/ml by NCCLS […] method; details: for zone of inhibition at 600 µg/mL: read-out: IZ
Bacillus pumilus [34] = experiment: Antibacterial activity against Bacillus pumilus assessed as growth inhibition at 600 ug/ml by NCCLS […] method; details: for zone of inhibition at 600 µg/mL: read-out: IZ
Fusarium oxysporum [35] = experiment: Antifungal activity against Fusarium oxysporum assessed as growth inhibition at 1200 ug/ml; details: read-out: IZ
Priestia megaterium [36] = experiment: Antibacterial activity against Bacillus megaterium assessed as growth inhibition at 900 ug/ml by NCCLS […] method; details: read-out: IZ

SMILES	zone of inhibition at 900 µg/mL (Proteus mirabilis [1]) [mm]	zone of inhibition at 600 µg/mL (Candida albicans [2]) [mm]	zone of inhibition at 900 µg/mL (Proteus vulgaris [3]) [mm]	zone of inhibition at 900 µg/mL (Candida albicans [4]) [mm]	zone of inhibition at 600 µg/mL (Escherichia coli [5]) [mm]	zone of inhibition at 1200 µg/mL (Colletotrichum falcatum [7]) [mm]	zone of inhibition at 600 µg/mL (Proteus vulgaris [8]) [mm]	zone of inhibition at 600 µg/mL (Staphylococcus aureus [9]) [mm]	zone of inhibition at 900 µg/mL (Escherichia coli [10]) [mm]	zone of inhibition at 900 µg/mL (Staphylococcus aureus [11]) [mm]	zone of inhibition at 900 µg/mL (Bacillus subtilis [12]) [mm]	zone of inhibition at 1200 µg/mL (Candida albicans [13]) [mm]	zone of inhibition at 600 µg/mL (Proteus mirabilis [14]) [mm]	zone of inhibition at 900 µg/mL (Streptococcus pyogenes [15]) [mm]	zone of inhibition at 600 µg/mL (Exserohilum rostratum [17]) [mm]	zone of inhibition at 900 µg/mL (Fusarium oxysporum [18]) [mm]	zone of inhibition at 600 µg/mL (Priestia megaterium [19]) [mm]	zone of inhibition at 600 µg/mL (Fusarium oxysporum [20]) [mm]	zone of inhibition at 900 µg/mL (Klebsiella pneumoniae [21]) [mm]	zone of inhibition at 300 µg/mL (Colletotrichum falcatum [22]) [mm]	also measured
COc1ccc2c(OCCCN3CCN(Cc4ccc(Cl)cc4Cl)CC3)c(-c3ccccc3)c(=O)oc2c1	9.01	4.89	8.04	9.56	7.02	26.4	4.02	6.5	14.1	12	12.1	17.2	4.91	6.25	5.76	13.6	6.3	6.25	14	3.25	zone of inhibition at 900 µg/mL (Klebsiella aerogenes [6]): 8.08 mm; zone of inhibition at 900 µg/mL (Bacillus pumilus [16]): 4.28 mm; zone of inhibition at 900 µg/mL (Colletotrichum falcatum [23]): 13.8 mm; zone of inhibition at 900 µg/mL (Exserohilum rostratum [24]): 11.6 mm; zone of inhibition at 300 µg/mL (Fusarium oxysporum [25]): 3.08 mm; zone of inhibition at 300 µg/mL (Exserohilum rostratum [26]): 2.89 mm; zone of inhibition at 300 µg/mL (Candida albicans [27]): 2.01 mm; zone of inhibition at 600 µg/mL (Colletotrichum falcatum [28]): 6.5 mm; zone of inhibition at 600 µg/mL (Bacillus subtilis [29]): 9.02 mm; zone of inhibition at 600 µg/mL (Klebsiella pneumoniae [30]): 8.82 mm; zone of inhibition at 600 µg/mL (Streptococcus pyogenes [31]): 3.27 mm; zone of inhibition at 1200 µg/mL (Exserohilum rostratum [32]): 23.2 mm; zone of inhibition at 600 µg/mL (Klebsiella aerogenes [33]): 4.25 mm; zone of inhibition at 600 µg/mL (Bacillus pumilus [34]): 2.01 mm; zone of inhibition at 1200 µg/mL (Fusarium oxysporum [35]): 25.8 mm; zone of inhibition at 900 µg/mL (Priestia megaterium [36]): 12 mm
COc1ccc2c(OCCCN3CCN(Cc4ccc(F)cc4F)CC3)c(-c3ccccc3)c(=O)oc2c1	4.29	4.5	8.02	9.6	2.6	25.9	4.2	3.41	4.8	6.48	10.7	18.2	2.65	10.2	7.68	16.9	4.48	8.56	6.34	3.24	growth inhibition (GI) (Klebsiella aerogenes [6]): inactive; zone of inhibition at 900 µg/mL (Bacillus pumilus [16]): 10.7 mm; zone of inhibition at 900 µg/mL (Colletotrichum falcatum [23]): 13.6 mm; zone of inhibition at 900 µg/mL (Exserohilum rostratum [24]): 14.2 mm; zone of inhibition at 300 µg/mL (Fusarium oxysporum [25]): 4.2 mm; zone of inhibition at 300 µg/mL (Exserohilum rostratum [26]): 5.02 mm; zone of inhibition at 300 µg/mL (Candida albicans [27]): 2.25 mm; zone of inhibition at 600 µg/mL (Colletotrichum falcatum [28]): 5.56 mm; zone of inhibition at 600 µg/mL (Bacillus subtilis [29]): 5.3 mm; zone of inhibition at 600 µg/mL (Klebsiella pneumoniae [30]): 3.24 mm; zone of inhibition at 600 µg/mL (Streptococcus pyogenes [31]): 5.3 mm; zone of inhibition at 1200 µg/mL (Exserohilum rostratum [32]): 26.8 mm; growth inhibition (GI) (Klebsiella aerogenes [33]): inactive; zone of inhibition at 600 µg/mL (Bacillus pumilus [34]): 5.02 mm; zone of inhibition at 1200 µg/mL (Fusarium oxysporum [35]): 28.1 mm; zone of inhibition at 900 µg/mL (Priestia megaterium [36]): 8.98 mm
COc1ccc2c(OCCCN3CCN(Cc4ccc[nH]4)CC3)c(-c3ccccc3)c(=O)oc2c1	19.4	7.77	16	13.9	3.22	19.6	8.12	14.8	6.04	25.3	7.87	27	10.9	18	7.01	20	6.32	10.2	8.12	3.02	zone of inhibition at 900 µg/mL (Klebsiella aerogenes [6]): 8.9 mm; zone of inhibition at 900 µg/mL (Bacillus pumilus [16]): 15.5 mm; zone of inhibition at 900 µg/mL (Colletotrichum falcatum [23]): 10.1 mm; zone of inhibition at 900 µg/mL (Exserohilum rostratum [24]): 13.9 mm; zone of inhibition at 300 µg/mL (Fusarium oxysporum [25]): 5.34 mm; zone of inhibition at 300 µg/mL (Exserohilum rostratum [26]): 3.54 mm; zone of inhibition at 300 µg/mL (Candida albicans [27]): 4.02 mm; zone of inhibition at 600 µg/mL (Colletotrichum falcatum [28]): 5.84 mm; zone of inhibition at 600 µg/mL (Bacillus subtilis [29]): 4.21 mm; zone of inhibition at 600 µg/mL (Klebsiella pneumoniae [30]): 4.21 mm; zone of inhibition at 600 µg/mL (Streptococcus pyogenes [31]): 9.1 mm; zone of inhibition at 1200 µg/mL (Exserohilum rostratum [32]): 25.3 mm; zone of inhibition at 600 µg/mL (Klebsiella aerogenes [33]): 4.78 mm; zone of inhibition at 600 µg/mL (Bacillus pumilus [34]): 7.49 mm; zone of inhibition at 1200 µg/mL (Fusarium oxysporum [35]): 31.6 mm; zone of inhibition at 900 µg/mL (Priestia megaterium [36]): 12.4 mm
COc1ccc2c(OCCCN3CCN(Cc4ccc(Br)cc4)CC3)c(-c3ccccc3)c(=O)oc2c1	5.02	5.84	10.2	10.1	2	33.8	5.02	4.25	4.01	8	4.16	19.6	4.28	13.1	8.12	14.2	6.25	6.15	6.24	5.62	zone of inhibition at 900 µg/mL (Klebsiella aerogenes [6]): 6.8 mm; growth inhibition (GI) (Bacillus pumilus [16]): inactive; zone of inhibition at 900 µg/mL (Colletotrichum falcatum [23]): 19.4 mm; zone of inhibition at 900 µg/mL (Exserohilum rostratum [24]): 15.6 mm; zone of inhibition at 300 µg/mL (Fusarium oxysporum [25]): 3.56 mm; zone of inhibition at 300 µg/mL (Exserohilum rostratum [26]): 4.56 mm; zone of inhibition at 300 µg/mL (Candida albicans [27]): 3.02 mm; zone of inhibition at 600 µg/mL (Colletotrichum falcatum [28]): 9.76 mm; zone of inhibition at 600 µg/mL (Bacillus subtilis [29]): 2.08 mm; zone of inhibition at 600 µg/mL (Klebsiella pneumoniae [30]): 2.89 mm; zone of inhibition at 600 µg/mL (Streptococcus pyogenes [31]): 6.25 mm; zone of inhibition at 1200 µg/mL (Exserohilum rostratum [32]): 31.3 mm; zone of inhibition at 600 µg/mL (Klebsiella aerogenes [33]): 3.25 mm; growth inhibition (GI) (Bacillus pumilus [34]): inactive; zone of inhibition at 1200 µg/mL (Fusarium oxysporum [35]): 29.4 mm; zone of inhibition at 900 µg/mL (Priestia megaterium [36]): 12.1 mm
